Reference: patent publication US20080241280A1, “Usage of the Plant of Genus Ampelopsis and Extracts Thereof For Manufacture of Medicament and Functional Food” (priority 2004, published 2008)

Experiments:
Type in all cases: in vivo
C57/B6 mice [1] = experiment: Low dose pentobarbital (16 mg/kg i.p.) sleep time in mice, loss of righting reflex; conditions: for mice sleep time: Table 3, sodium pentobarbital 16 mg/kg i.p.
Protocol: (§1) C57/B6 mice were randomised into groups and orally administered; ECBRC-T2 (30 mg/kg), melatonin (30 mg/kg), Radix Valerianae (140 mg/kg) or vehicle (10 ml/kg H2O), 30 min prior to low dose injection of sodium pentobarbital (16 mg/kg, i/p.). The animals were then placed on a heating pad (37° C.) and their sleep latency to onset of sleep and the duration of sleep determined according to loss of righting reflex.
C57/B6 mice were randomised into groups and orally administered ECBRC-T1 (10,50,100,500 mg/kg), 30 min prior to low dose injection of sodium pentobarbital (16 mg/kg, i/p.). The animals were then placed on a heating pad (37° C.) and their sleep latency to onset of sleep and the duration of sleep determined according to loss of righting reflex. […]
The animals were then placed on a heating pad (37° C.) and their sleep latency to onset of sleep and the duration of sleep determined according to loss of righting reflex.

C57/B6 mice [2] = experiment: Pentobarbital (30 mg/kg i.p.) prolonged sleeping time in mice, loss of righting reflex; conditions: 30 mg/kg oral, 30 min prior to sodium pentobarbital 30 mg/kg i.p.; p<0.05, n>4
Protocol: as §1, with “(30” for “(16”

male C57/B6 mice = experiment: Remote sensing (telemetric) determination of mice activities; conditions: Table 5, 20 mg/kg p.o., 6 hours after administration, control 2% EtOH
Protocol: Remote sensing determination of mice activities.
Telemetric activity and temperature monitors were surgically implanted sub-coetaneously into male C57/B6 mice under ketamie (Alfasan, batch number: 112319) and xyalsine (Alfasan, batch number: 073210) (75/10 mg/kg, i.p.) anaesthesia to remotely record activity Correct placement was determined using X-ray radiography.

SMILES | Sleep time (min ± SEM) (C57/B6 mice [1]; Table 1, 30 mg/kg oral, 30 min prior to sodium pentobarbital 16 mg/kg i.p.) | mice sleep time (C57/B6 mice [1]; 10 mg/kg oral) | mice sleep time (C57/B6 mice [1]; 20 mg/kg oral) | mice sleep time (C57/B6 mice [1]; 30 mg/kg oral) | sleep time compared with the vehicle control group (C57/B6 mice [2]) | Telemetric Activity (% sleep time ± SEM) (male C57/B6 mice) | Telemetric Activity (% sleep time ± SEM) (male C57/B6 mice; listed as zopiclone)
COc1ccc2[nH]cc(CCNC(C)=O)c2c1 [Melatonin, melatonin] | 63 ± 11 min | 31 ± 4 n = 4 | 63 ± 5 n = 6 | 68 ± 8 n = 6 | significantly difference | – | –
CN1CCN(C(=O)OC2c3nccnc3C(=O)N2c2ccc(Cl)cn2)CC1 (stereo not shown) [Zopiclone, zopiclone] | – | – | – | – | – | 66.6 ± 5.1 % | significantly extended
